Experiment [1] has as its target T1, human α1β2γ2L GABAA receptor (Homo sapiens, UniProt P14867+P18507+P47870).
T1 construct: expressed in transfected cells
Description: Patch-clamp (Dynaflow) of GABA-mediated current in HEK-293 cells expressing α1β2γ2L GABAA receptor. The class given is cell-based. An excerpt:
(§1) Aim: To investigate the effect of 3α-ethynyl-3β-hydroxy-5α-androstan-17-one on the GABAA receptor function both in absence and in presence of the GAMS tetrahydrodeoxycorticosterone (THDOC) by the Dynaflow™ system (Fluicell) on HEK-293 cells recombinantly expressing human α1β2γ2L GABAA receptor or human α3β3γ2 GABAA receptor subtype. In these tests the protocol was optimized to be similar to the physiological conditions in the synaptic cleft.
(§2) Preparation of cell lines: Cell lines permanently expressing a functional human GABAA receptor was made as follows. The GABAA receptor subunits α1β2γ2L or α3β3γ2 including introduced Kozac sequences just before the start codons were subcloned into mammalian expression vectors comprising Geneticin, Hygromycin B, and Zeocin resistance, respectively. A HEK-293 cell line stably expressing the three GABAA receptor subunits (α1β2γ2L, α3β3γ2) separately for α1β2γ2L and α3β3γ2 subunit composition was produced by transfection of the subunits one at a time. The transfection was followed by selection with the appropriate antibiotics, cell separation with the use of subunit specific antibodies (β2 and γ2, Abcam, Upstate/Chemicon/Milipore, Sigma Aldrich), and production of single cell colonies. Produced cell lines were analysed with immunocytochemistry for the three GABAA receptor subunits, followed by selection of a suitable cell line showing for the GABAA receptor normal and good reactivity towards GABA and THDOC.
(§3) HEK-293 cells (obtained from Pasteur Institute, Paris, France), permanently transfected with the human 1β2γ2L or α3β3γ2 GABAA receptor subtypes, were seeded at a density of 3×10^4/25 cm^2 in a culture flask. The transfected cells were used for patch-clamp experiments 3 days after seeding. When using the cells for patch-clamp experiments the cells were washed twice with oxygen-bubbled EC-solution (see below). About 5 mL EC was then added and the cells were kept in the incubator for about 15 minutes. After 15 minutes the cells came loose from the bottom of the flask and were separated by carefully sucking a couple of times with a Pasteur pipette.
(§4) Dynaflow™ system with Resolve chips (Fluicell) was used for all patch-clamp experiments. The DF-16 Proll chips (Fluicell) used have non-sticky inserts for the wells. The channel width was 150 μm and the height 50 μm. The well volume was 280 μL. Run time at the […] is […]. The pump settings were as follow: Omnifix 2 mL syringe with inner diameter of 9.65 mm was used. The syringe pump flow rate for DF-16 Pro II chip was 26 μL/min.
Steroids and GABA: GABA (Sigma Aldrich) was dissolved in EC-solution by ultrasound for about 40 minutes to the concentration of 10 mM in room temperature. All steroids were dissolved to the concentration of 6 mM in DMSO. […]

Experiment [2] addresses T2, human α4β3δ GABAA receptor (Homo sapiens, UniProt O14764+P28472+P48169).
T2 construct: expressed in transfected cells
Description: Patch-clamp (Dynaflow) of GABA-mediated current at α4β3δ GABAA receptor. The class given is cell-based. Particulars: agonist effect. The text has this: (§5) Aim: the aim of this project was to study the effect of 3α-ethynyl-3β-hydroxy-5α-androstan-17-one and the positive GABAA receptor modulator THDOC on GABA-mediated current response, at human α1β2γ2L, α2β3γ2S, α4β3δ and α5β3γ2L subunit GABAA receptors.
(§6) Study design: The current response mediated by chloride ion flux through the GABAA receptors expressing the α1β2γ2L, α2β3γ2S, α3β3γ2L, α4β3δ and α5β3γ2L subunit was studied with the use of patch clamp technique combined with the Dynaflow™ application system and the Resolve chip. This provides rapid applications of and removal of substances. The material, protocol and methods were identical to the ones used in Examples 1 and 2. 1 μM 3α-ethynyl-3β-hydroxy-5α-androstan-17-one was studied on GABA mediated current response at α1β2γ2L, α2β3γ2S, α4β3δ and α5β3γ2L GABAA receptor subtypes (FIG. 4, Table 6). In addition, the effect of 1-1000 nM THDOC was studied on GABA mediated current response at the α1β2γ2L, α3β2γ2, and α5β3γ2L receptor subtypes (Table 8). The binding site of THDOC is in the […] region of the receptor. To achieve stable response, the cells were exposed to steroid (THDOC) in 20 seconds before GABA application.
(§7) The amount GABA used depends on the receptor subtype intra or extra-synaptic type, α1β2γ2L=30 μM; α2β3γ2S=45 μM; α4β3δ=1 μM and α5β3γ2L=0.3 μM GABA.

Experiment [3] addresses T3, human α5β3γ2L GABAA receptor (Homo sapiens, UniProt P18507+P28472+P31644).
T3 construct: expressed in transfected cells
Description: Patch-clamp (Dynaflow) of GABA-mediated current at α5β3γ2L GABAA receptor. The format is cell-based.
Source text: as §5, §6, §7
(§8) THDOC: The following standard protocol was used for the different receptor subtypes: • α1β2γ2L: 20 s preincubation of 30-1000 nM THDOC 40 ms application of 30 μM GABA±steroids. • α3β2γ2: 20 s preincubation of 1-1000 nM THDOC followed by 1 s application of 100 μM GABA±steroids. • α5β3γ2L: 20 s preincubation of 30-1000 nM THDOC followed by 6 s application of 0.3 μM GABA±steroids.

Experiment [4] deals with α3β2γ2 GABAA receptor subtype (Homo sapiens, UniProt P28472+P34903). Description: Patch-clamp (Dynaflow), THDOC on GABA-mediated current at α3β2γ2 receptor subtype. The format is cell-based. The following applies: 1-1000 nM THDOC 20 s preincubation, 100 μM GABA 1 s, read-out: Emax for effect on GABA mediated current response. The method, then:
as §6, §8

Experiment [5] deals with T4, human α3β3γ2 GABAA receptor subtype (Homo sapiens, UniProt P18507+P28472+P34903).
T4 construct: expressed in transfected cells
T4 sequence (P34903 29-492): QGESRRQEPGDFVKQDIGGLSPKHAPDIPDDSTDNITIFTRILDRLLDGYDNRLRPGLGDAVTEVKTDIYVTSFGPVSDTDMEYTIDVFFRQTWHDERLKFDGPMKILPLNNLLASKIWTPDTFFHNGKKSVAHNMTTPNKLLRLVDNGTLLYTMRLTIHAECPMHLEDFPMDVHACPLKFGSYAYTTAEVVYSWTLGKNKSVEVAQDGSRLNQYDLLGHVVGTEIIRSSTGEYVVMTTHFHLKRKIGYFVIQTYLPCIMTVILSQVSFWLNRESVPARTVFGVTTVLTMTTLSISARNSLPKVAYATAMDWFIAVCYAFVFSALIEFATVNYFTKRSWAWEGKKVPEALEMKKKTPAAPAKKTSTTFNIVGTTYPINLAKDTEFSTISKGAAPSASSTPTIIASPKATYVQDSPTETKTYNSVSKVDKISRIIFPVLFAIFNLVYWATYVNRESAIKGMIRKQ
T4 sequence (P28472 26-473): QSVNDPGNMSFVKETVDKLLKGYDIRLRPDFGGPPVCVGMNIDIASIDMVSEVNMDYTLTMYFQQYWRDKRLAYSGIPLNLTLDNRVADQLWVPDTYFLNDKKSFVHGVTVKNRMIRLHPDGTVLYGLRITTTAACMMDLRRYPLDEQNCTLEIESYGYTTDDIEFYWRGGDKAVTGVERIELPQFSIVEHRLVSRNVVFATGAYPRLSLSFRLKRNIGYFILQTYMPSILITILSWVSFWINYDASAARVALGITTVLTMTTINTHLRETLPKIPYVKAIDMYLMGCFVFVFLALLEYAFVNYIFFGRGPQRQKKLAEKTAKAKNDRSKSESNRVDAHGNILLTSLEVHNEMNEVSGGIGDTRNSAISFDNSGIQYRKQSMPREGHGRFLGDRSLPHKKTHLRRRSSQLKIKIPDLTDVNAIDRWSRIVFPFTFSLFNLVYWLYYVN
T4 sequence (P18507 40-475): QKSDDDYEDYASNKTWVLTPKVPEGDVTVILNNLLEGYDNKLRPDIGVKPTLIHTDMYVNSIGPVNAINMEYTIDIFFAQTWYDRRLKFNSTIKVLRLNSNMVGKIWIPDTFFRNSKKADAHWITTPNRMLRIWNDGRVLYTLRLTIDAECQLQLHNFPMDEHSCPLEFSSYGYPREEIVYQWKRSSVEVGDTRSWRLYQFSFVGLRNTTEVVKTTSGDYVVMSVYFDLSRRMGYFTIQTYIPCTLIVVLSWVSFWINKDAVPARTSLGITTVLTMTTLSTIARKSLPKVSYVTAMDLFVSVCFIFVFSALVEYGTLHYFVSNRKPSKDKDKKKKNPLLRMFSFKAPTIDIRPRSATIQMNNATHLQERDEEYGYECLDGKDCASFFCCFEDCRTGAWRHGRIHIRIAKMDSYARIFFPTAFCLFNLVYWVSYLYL
Description: Patch-clamp (Dynaflow) of GABA-mediated current in HEK-293 cells expressing α3β3γ2L GABAA receptor. The class given is cell-based.
Source text: as §1, §2, §3, §4
Steroids and GABA: GABA (Sigma Aldrich) was dissolved in EC-solution by ultrasound for about 40 minutes to the concentration of 10 mM in room temperature. All steroids were dissolved to the concentration of 6 mM in DMSO. The DMSO concentration was 0.1% in all end-solutions, including the wash solution (EC) and the solution with GABA alone. End-solutions are the solutions added into the wells of the chip.
Electrophysioloqy: Patch electrodes were pulled from 1.5 mm O.D., 0.86 mm I.D. borosilicate capillary glass without filament. […] The intracellular solution consisted of (in mM): 140 Cs-gluconate, 3.0 NaCl, 1.2 MgCl2, 1.0 EGTA, 10 HEPES. pH was adjusted to 7.2 with CsOH. The extracellular (EC) solution used during recordings contained (in mM): 137 NaCl, 5.0 KCl, 1.0 CaCl2), 1.2 MgCl2, 10 HEPES, 10 glucose. pH was adjusted with NaOH to 7.4. All chemicals in the intracellular and extracellular solutions were obtained from Sigma-Aldrich. After compensating for the liquid junction potential, a steady holding potential of −17 mV was used in all experiments. In physiological conditions the HEK-293 has a resting potential at −40 mV and a low concentration of chloride ions inside the cell. By using the holding potential of −17 mV and the intracellular solution with low chloride ion concentration the chloride ions flux into the cell when the receptors are activated. […]

Experiment [6] in a line: Weight increase in growing male rats, experiment 2 (10 days s.c., with progesterone + estradiol). The class given is in vivo, Male Wistar rats. The following applies: for Weight difference compared to vehicle (Mean±SE) / Weight difference versus E+P control rats (Mean±SE): 10 days, n=9. As to the method:
Animals: Male Wistar rats were kept in group cages, with three animals per cage, from delivery and throughout the period of experiments. The individual animals were marked so that they could be identified throughout the experiment duration. The animals weight an average of 152 g upon arrival. A reversed light dark (12:12 h) cycle was used with the dark period onset at 0600 hrs. Altogether fifty-six (56) rats were used in this study (experiment 1+2). The animals were delivered from the breeder Taconic (Denmark). The study protocol was approved by the Regional Ethics Committee of Umea University, Sweden.
Feeding: Standard chow and water were available ad libitum. A reversed 12-h dark-light cycle with lights off at 10.00 am and lights on at 22.00 pm was used. For identification, the rats were marked with a permanent marker on the tail. To avoid the endogenous allopregnanolone fluctuations that are present in the oestrous cycle of female rats, male rats were chosen (Frye et al. 2000). The animals were allowed to acclimatize for at least 3 weeks before start of the experimental sessions. During this period, the rats were repeatedly handled and allowed habituation to the new environment and to all new procedures, to minimize stress during the experiments.
After 14 days of triad housing, handling and injection training of the animals, the animals were treated for 5 days with IV injections in experiment 1 and 10 days with a daily subcutaneous injection of the assigned treatment in experiment 2 (Table 3 and 4). The injections were given at 08.00 every morning. The animals were weighed the day before onset of the treatment and at the last day of injection i.e. on the 5th or 10th day of treatment. Weight was taken at the time of the last injection. […] The results are shown in FIG. 2 (experiment 1) and FIG. 3 (experiment 2), respectively.

The subject of the next experiment is GABAA receptor. The following applies: taught in WO 09/142594, table 3; cited from earlier work.
[7] abbreviates: 1 mg/kg s.c. + 5 mg/kg progesterone + 10 μg/kg 17β-estradiol.
The mark [8] stands for this setting: 5 mg/kg s.c. + 5 mg/kg progesterone + 10 μg/kg 17β-estradiol.

Several values for one entry are separate records, joined by “and”; a condition that tells them apart may be missing. Equal values may be shown once. Entries after “also recorded” stand apart in the source; their conditions may differ.

T1 sequence (P14867 28-456): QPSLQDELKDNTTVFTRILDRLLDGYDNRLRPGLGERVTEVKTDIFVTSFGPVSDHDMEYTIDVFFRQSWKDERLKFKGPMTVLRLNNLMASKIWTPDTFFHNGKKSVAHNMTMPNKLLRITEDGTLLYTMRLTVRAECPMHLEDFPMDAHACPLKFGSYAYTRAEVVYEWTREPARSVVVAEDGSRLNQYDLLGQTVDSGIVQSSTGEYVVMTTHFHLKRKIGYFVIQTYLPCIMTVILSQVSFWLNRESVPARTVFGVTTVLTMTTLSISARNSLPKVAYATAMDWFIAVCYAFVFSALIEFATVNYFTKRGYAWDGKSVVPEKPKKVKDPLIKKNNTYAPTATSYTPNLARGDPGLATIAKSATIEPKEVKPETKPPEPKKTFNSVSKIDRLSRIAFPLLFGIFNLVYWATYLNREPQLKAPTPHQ
T1 sequence (P47870 25-512 limits assumed): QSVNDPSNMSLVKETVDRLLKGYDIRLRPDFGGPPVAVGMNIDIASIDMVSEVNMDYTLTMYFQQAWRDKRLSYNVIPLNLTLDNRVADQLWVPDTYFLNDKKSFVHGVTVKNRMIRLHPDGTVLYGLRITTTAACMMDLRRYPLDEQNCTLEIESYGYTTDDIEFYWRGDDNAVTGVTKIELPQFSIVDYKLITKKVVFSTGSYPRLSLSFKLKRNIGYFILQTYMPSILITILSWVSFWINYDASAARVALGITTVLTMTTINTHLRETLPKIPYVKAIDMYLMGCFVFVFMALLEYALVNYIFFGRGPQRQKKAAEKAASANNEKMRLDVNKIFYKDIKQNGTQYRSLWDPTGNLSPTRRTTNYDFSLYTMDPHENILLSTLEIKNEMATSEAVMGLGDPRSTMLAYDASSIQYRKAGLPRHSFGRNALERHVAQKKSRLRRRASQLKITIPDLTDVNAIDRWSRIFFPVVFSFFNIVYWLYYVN
T1 sequence (P18507 40-475): as the sequence (P18507 40-475) above
T3 sequence (P31644 32-462): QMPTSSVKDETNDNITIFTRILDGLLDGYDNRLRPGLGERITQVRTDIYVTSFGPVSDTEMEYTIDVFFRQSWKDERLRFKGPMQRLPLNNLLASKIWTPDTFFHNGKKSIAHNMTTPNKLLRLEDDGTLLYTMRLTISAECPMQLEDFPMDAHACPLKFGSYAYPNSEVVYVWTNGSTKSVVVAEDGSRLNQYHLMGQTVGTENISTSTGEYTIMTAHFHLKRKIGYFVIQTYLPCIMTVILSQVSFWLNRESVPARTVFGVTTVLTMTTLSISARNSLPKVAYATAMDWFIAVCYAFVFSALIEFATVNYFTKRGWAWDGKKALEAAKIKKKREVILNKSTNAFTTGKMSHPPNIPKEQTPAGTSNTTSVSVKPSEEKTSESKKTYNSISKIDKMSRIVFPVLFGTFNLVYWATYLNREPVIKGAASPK
T3 sequence (P28472 26-473): as the sequence (P28472 26-473) above
T3 sequence (P18507 40-475): as the sequence (P18507 40-475) above
Sequence of α3β2γ2 GABAA receptor subtype (P34903 29-492): as the sequence (P34903 29-492) above
Sequence of α3β2γ2 GABAA receptor subtype (P28472 26-473): as the sequence (P28472 26-473) above
Sequence of α3β2γ2 GABAA receptor subtype (P18507 40-475 partner): as the sequence (P18507 40-475) above
T2 sequence (P48169 36-554): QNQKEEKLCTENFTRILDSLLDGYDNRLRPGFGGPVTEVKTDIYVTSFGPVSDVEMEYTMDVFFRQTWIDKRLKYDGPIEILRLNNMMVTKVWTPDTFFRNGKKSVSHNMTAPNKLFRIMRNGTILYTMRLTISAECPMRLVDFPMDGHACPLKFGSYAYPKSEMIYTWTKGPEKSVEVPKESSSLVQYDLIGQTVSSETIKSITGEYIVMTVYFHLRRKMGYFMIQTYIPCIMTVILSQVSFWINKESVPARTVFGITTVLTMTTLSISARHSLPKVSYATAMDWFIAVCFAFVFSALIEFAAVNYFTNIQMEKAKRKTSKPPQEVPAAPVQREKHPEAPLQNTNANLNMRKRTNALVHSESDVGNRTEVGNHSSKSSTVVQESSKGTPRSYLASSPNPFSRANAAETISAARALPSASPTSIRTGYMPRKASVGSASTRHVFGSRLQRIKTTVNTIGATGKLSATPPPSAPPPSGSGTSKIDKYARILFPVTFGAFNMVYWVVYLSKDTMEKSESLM
T2 sequence (P28472 26-473): as the sequence (P28472 26-473) above
T2 sequence (O14764 17-452 limits assumed): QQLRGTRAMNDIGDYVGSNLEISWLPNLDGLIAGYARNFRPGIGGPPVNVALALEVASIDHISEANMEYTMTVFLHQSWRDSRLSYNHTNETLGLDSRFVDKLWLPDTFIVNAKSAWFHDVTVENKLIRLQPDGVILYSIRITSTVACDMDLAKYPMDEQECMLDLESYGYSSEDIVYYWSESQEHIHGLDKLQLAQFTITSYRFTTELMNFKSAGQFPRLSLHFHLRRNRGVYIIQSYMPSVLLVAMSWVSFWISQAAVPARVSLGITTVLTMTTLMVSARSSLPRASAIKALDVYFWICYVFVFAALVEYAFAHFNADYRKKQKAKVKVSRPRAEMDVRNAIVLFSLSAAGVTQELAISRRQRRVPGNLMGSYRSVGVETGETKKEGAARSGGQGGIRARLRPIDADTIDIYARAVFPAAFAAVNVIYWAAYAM

For the compound `C[C@]12CC[C@@H](O)C[C@@H]1CC[C@@H]1[C@@H]2CC[C@]2(C)[C@@H](C(=O)CO)CC[C@@H]12` [THDOC, 3α, 21-dihydroxy-5α-pregnan-20-one], the Emax was found to be 115% in experiment [1] (HEK293, α1β2γ2L, 30-1000 nM THDOC 20 s preincubation, 30 μM GABA 40 ms, read-out: Emax for effect on GABA mediated current response); 131% in experiment [3] (α5β3γ2L, 30-1000 nM THDOC 20 s preincubation, 0.3 μM GABA 6 s, read-out: Emax for effect on GABA mediated current response); 80% in experiment [4]. Besides, the “Effect on GABA-mediated current at α1β2γ2L (in words)” value in experiment [1] (agonist effect) was “significantly enhances”. The EC50 turned out to be 0.07 µM in experiment [1] (α1β2γ2L, 30-1000 nM THDOC 20 s preincubation, 30 μM GABA 40 ms, read-out: EC50 for effect on GABA mediated current response) and 0.068 µM in experiment [3] (α5β3γ2L, 30-1000 nM THDOC 20 s preincubation, 0.3 μM GABA 6 s, read-out: EC50 for effect on GABA mediated current response). The “Effect on GABA-mediated current at α4β3δ (in words)” value in experiment [2] is recorded as “significantly enhances”. In experiment [3] (agonist effect), the “Effect on GABA-mediated current at α5β3γ2L (in words)” value is “significantly enhances”.

Consider `C#C[C@]1(O)CC[C@@]2(C)[C@@H](CC[C@@H]3[C@@H]2CC[C@]2(C)C(=O)CC[C@@H]32)C1` [3α-ethynyl-3β-hydroxy-5α-androstan-17-one], for which the “Effect on 100 μM GABA-mediated current response, Mean ± SEM %” value in experiment [5] (0.003 μM compound + 100 μM GABA, α3β3γ2L) is “+2.5 ± 2.9%”; in experiment [5] (0.01 μM compound + 100 μM GABA, α3β3γ2L) it was −3.0 ± 2.3%; in experiment [5] (0.03 μM compound + 100 μM GABA, α3β3γ2L), −2.0 ± 1.0%; in experiment [5] (0.1 μM compound + 100 μM GABA, α3β3γ2L), −4.0 ± 3.0%; in experiment [5] (0.3 μM compound + 100 μM GABA, α3β3γ2L), −10% and −10 ± 2.3%; in experiment [5] (3 μM compound + 100 μM GABA, α3β3γ2L), −74 ± 0.9%. Further, the “Effect on 100 μM GABA-mediated current response, Mean ± SEM %” value in experiment [5] (10 μM compound + 100 μM GABA, α3β3γ2L) is −76 ± 1.9%. The “Own effect, Baseline shift” value is given as −1.0 ± 0.4 pA in experiment [5] (0.003 μM compound, absence of GABA, α3β3γ2L); −0.7 ± 0.7 pA in experiment [5] (0.01 μM compound, absence of GABA, α3β3γ2L); −0.8 ± 1.2 pA in experiment [5] (0.03 μM compound, absence of GABA, α3β3γ2L); −1.0 ± 0.8 pA in experiment [5] (0.1 μM compound, absence of GABA, α3β3γ2L); “+0.9 ± 0.5 pA” in experiment [5] (0.3 μM compound, absence of GABA, α3β3γ2L); −1.2 ± 0.5 pA in experiment [5] (1 μM compound, absence of GABA, α3β3γ2L). Besides, the “Own effect, Baseline shift” value is recorded as −0.4 ± 0.4 pA in experiment [5] (3 μM compound, absence of GABA, α3β3γ2L) and “+1.1 + 2.4 pA” in experiment [5] (10 μM compound, absence of GABA, α3β3γ2L). Besides, the “Activation of the α3β3γ2L GABAA receptor in absence of GABA” value in experiment [5] (0.003-10 μM, absence of GABA) is “do not activate”. The “Imax on 100 μM GABA-mediated current response” value in experiment [5] (0.003-10 μM, best fit curve, α3β3γ2L) is recorded as −78%. Besides, in experiment [5] (0.003-10 μM, best fit curve, α3β3γ2L, read-out: IC50 on 100 μM GABA-mediated current response), the IC50 stood at 0.8 µM. In addition, the “Antagonism of 100 nM THDOC-enhancement at α1β2γ2” value in experiment [1] (1 μM compound + THDOC + GABA) is “no significant agonistic or antagonistic effect; also recorded: No effect”. The “Weight difference compared to vehicle (Mean±SE)” value in experiment [6] (setting [7]) is -33 ± 4.4 g; in experiment [6] (setting [8]), -29.6 ± 5.2 g. For the same compound, the “Weight difference versus E+P control rats (Mean±SE)” value in experiment [6] (setting [7]) was -23.9 ± 4.4 g; in experiment [6] (setting [8]), -20.4 ± 5.2 g. Also, in experiment [6] (s.c., 10 days of treatment), the “Difference in weight after 10 days of treatment compared to vehicle” value is listed as “over 20%”. Also, the “Effect as a GAMSA or GAMS” value in the experiment on GABAA receptor is reported as “no effect”.

Source of the values: patent publication US20260158043A1, “STEROID AS A MODULATOR OF GABAA RECEPTOR” (UMECRINE COGNITION AB, priority 2021, published 2026).
